Like-named read-outs stand apart in the source and are kept apart here.
Legend:
hiHeps [1] = assay: Measurements of hepatic clearance in hiHeps suspension
Description: Briefly, a 1×10^6 cells/ml cell suspension and 2× drug solutions were prepared in incubation medium (William's E medium, 10 mM HEPES [pH 7.4], and 1% GlutaMAX). Reactions were started by adding 500 μl of drug solutions to 500 ul of hiHeps, giving a final substrate concentration of between 1 and 2 μM.
These concentrations were selected to be below the Km for most substrates but to still have sufficient analytical sensitivity. Reactions were performed in an orbital shaker in an incubator at 37° C. Then, 80 μl aliquots were removed at 0, 15, 30, 60, 90, 120, 180 and 240 minutes, and samples were quenched in 240 μl of methanol containing an isotope-labeled reference and frozen at −80° C. The substrates were quantified using the validated traditional LC-MS/MS methods described above. Assays were performed in triplicate.
The slope (−k) of the linear regression from the log [substrate] versus time plot was determined. […] No correction factor was made for any differential in vitro and in vivo binding, and the distribution of the drug between the plasma and blood was assumed to be unity.

[2] = cited from earlier work
CYP2B6 = tested on: CYP2B6
Description: (§1) Vehicle-treated groups were used to determine the basal activity. To measure the induced activity of PHHs, PHHs were cultured and induced under sandwich methods.

[3] = Toxicity assay in hiHeps (TC50); assay type: cell-based, human; conditions: human, hiHeps, 24 hours; values rounded for ease of use
Description: (§2) For the toxicity assay, hiHeps, HepG2 cells and PHHs were cultured in 96-well or 384-well plates. Compounds with 7-8 concentration dilutions were prepared in DMEM with 3% FBS to test HepG2 cells or in HCM to test PHHs and hiHeps. The final DMSO concentration under all conditions was consistent.
(§3) Compounds were tested in bipartite in a dilution series by half-log concentration increments. After the cells were treated with compounds for 24 hours, the supernatant was discarded and modified WEM (William's E medium supplemented with 2% B27 and 1% GlutaMAX) containing fluorescent probes was added to cells. […] After incubation for 30 minutes, the supernatant was discarded and cells were washed twice. Images were acquired using the Operetta High-Content Imaging System (PerkinElmer) with a 10× objective. […] After 1-4 hour chromogenic reaction in the incubator, the absorbance at 450 nm was read using a SpectraMax i3× (Molecular Devices). Image data were analyzed online using the Columbus Image Data Storage and Analysis System (PerkinElmer) with the following steps: (1) identification and counting of nuclei; (2) identification and counting of live cells labeled by CellTrace™ Calcein Red-Orange AM; and (3) identification and counting of live cells labeled by MitoTracker™ Deep Red FM. The viability of each parameter transformed from image data and the CCK-8 assay data were entered into Excel. The cellular viability of each parameter was expressed as the live cell ratio and normalized to the negative control. The TC50 values of these four parameters were calculated separately, and the minimum TC50 value was used as the final TC50.

HBV = HBV infection of hiHeps, response to anti-HBV compounds; assay type: cell-based
HepG2 cells = assay type: cell-based; conditions: human
Description: For the toxicity assay, hiHeps, HepG2 cells and PHHs were cultured in 96-well or 384-well plates. Compounds with 7-8 concentration dilutions were prepared in DMEM with 3% FBS to test HepG2 cells or in HCM to test PHHs and hiHeps. The final DMSO concentration under all conditions was consistent. The detailed information of the tested compounds is listed in Table 7 ((Seglen, et. Al., Methods in Cell Biology 13, 29-83 (1976)), Zhong et. Al., Clin Chim Acta. 412, 1905-1911 (2011))).
Compounds were tested in bipartite in a dilution series by half-log concentration increments. […] After 1-4 hour chromogenic reaction in the incubator, the absorbance at 450 nm was read using a SpectraMax i3× (Molecular Devices). Image data were analyzed online using the Columbus Image Data Storage and Analysis System (PerkinElmer) with the following steps: (1) identification and counting of nuclei; (2) identification and counting of live cells labeled by CellTrace™ Calcein Red-Orange AM; and (3) identification and counting of live cells labeled by MitoTracker™ Deep Red FM. […] The cellular viability of each parameter was expressed as the live cell ratio and normalized to the negative control. The TC50 values of these four parameters were calculated separately, and the minimum TC50 value was used as the final TC50.

hiHeps [4] = tested on: hiHeps
CYP1A2 = tested on: CYP1A2
Description: as §1

hiHeps [5] = assay: Toxicity assay in hiHeps (TC50); assay type: cell-based, human
Description: as §2, §3

[6] = hiHeps suspension, substrate 1 μM, parent disappearance
[7] = scaled from hiHeps CLint, well stirred model, human

O=C(O)Cc1ccccc1Nc1c(Cl)cccc1Cl [Diclofenac]
In vitro Clint hiHeps by (hiHeps [1]; [6]): 4.5 μL/min/10^6
Scaled in vivo CLh by hiHeps (hiHeps [1]; [7]): 7.4 ml/mim/kg
Observed CLh in vivo ([2]; in vivo): 7.6

Cc1ncc2n1-c1ccc(Cl)cc1C(c1ccccc1F)=NC2 [Midazolam]
In vitro Clint hiHeps by (hiHeps [1]; human, pH 7.4): 2.8 μL/min/10^6
Scaled in vivo CLh by hiHeps (hiHeps [1]; human, pH 7.4): 5.3 ml/mim/kg
Observed CLh in vivo ([2]; observed in vivo, previous reports): 5.3

C=CCN1CC[C@]23c4c5ccc(O)c4O[C@H]2C(=O)CC[C@@]3(O)[C@H]1C5 [Naloxone]
In vitro Clint hiHeps by (hiHeps [1]; [6]): 14.2 μL/min/10^6
Scaled in vivo CLh by hiHeps (hiHeps [1]; [7]): 13 ml/mim/kg

CCOc1ccc(NC(C)=O)cc1 [Phenacetin]
In vitro Clint hiHeps by (hiHeps [1]; [6]): 18.3 μL/min/10^6
Scaled in vivo CLh by hiHeps (hiHeps [1]; [7]): 14.1 ml/mim/kg

CCC1(c2ccccc2)C(=O)NC(=O)NC1=O [Phenobarbital]
induced activity of CYP2B6 (CYP2B6): could be induced

CN(C)CCCN1c2ccccc2Sc2ccc(Cl)cc21 [chlorpromazine]
CC50 at 24 h [3]: ~25 µM

C=C1[C@H](CO)[C@@H](O)C[C@@H]1n1cnc2c(=O)[nH]c(N)nc21 [entecavir]
inhibition of HBV-DNA (HBV; HBV-infected hiHeps, LAM 1 μM, ETV 0.5 μM, especially during prolonged treatment): greatly inhibited

CC(C)C(=O)Nc1ccc([N+](=O)[O-])c(C(F)(F)F)c1 [flutamide]
cell viability (HepG2 cells): 100%
toxicity after induction with rifampin (hiHeps [4]): increased after induction with rifampin

CC(=O)N1CCN(c2ccc(OCC3COC(Cn4ccnc4)(c4ccc(Cl)cc4Cl)O3)cc2)CC1 (centres unmarked) [ketoconazole]
rescue from rifampin-increased toxicity of AFB1 and flutamide (hiHeps [4]): rescued

Cc1c(OCC(F)(F)F)ccnc1C[S+]([O-])c1nc2ccccc2[nH]1 (centres unmarked) [lansoprazole]
induced activity of CYP1A2 (CYP1A2): could be induced

CO[C@H]1/C=C/O[C@@]2(C)Oc3c(C)c(O)c4c(O)c(c(/C=N/N5CCN(C)CC5)c(O)c4c3C2=O)NC(=O)/C(C)=C\C=C\[C@H](C)[C@H](O)[C@@H](C)[C@@H](O)[C@@H](C)[C@H](OC(C)=O)[C@@H]1C [rifampin]
CC50 at 24 h [3]: 100 µM

Cc1c(C)c2c(c(C)c1O)CCC(C)(COc1ccc(CC3SC(=O)NC3=O)cc1)O2 (centres unmarked) [troglitazone]
chronic toxicity (cell death) (hiHeps [5]): caused extensive cell death

O=c1cc(-c2ccccc2)oc2ccc3ccccc3c12 [β-naphthoflavone]
induced activity of CYP1A2 (CYP1A2): could be induced

aflatoxin B1
toxicity after induction with rifampin (hiHeps [4]): increased after induction with rifampin

interferon-alpha
effect on all major HBV markers (HBV; HBV-infected hiHeps, 1000 U/mL after infection): inhibitory effect
IFN-stimulated genes expression (HBV; hiHeps, 1000 U/mL): upregulation

Source: patent US20220127580A1, “COMPOSITIONS AND METHODS FOR REPROGRAMING NON-HEPATOCYTE CELLS INTO HEPATOCYTE CELLS” (priority 2019, published 2022)
